Assay: gradient 5% acetonitrile 3 min, to 50% in 2 min, to 85% in 15 min, held 3 min, 100 µL/min
Conditions: column: Zorbax Extend-C18 2.1 x 50 mm; eluents: water / acetonitrile, 0.1% formic acid
How it was run: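 Retention time was recorded from adduct peaks, which were picked computationally and each inspected manually. Pure standards ran in mixtures of ~100 molecules on HPLC coupled to a quadrupole time-of-flight mass spectrometer, in positive and negative ionization mode, through a Zorbax Extend-C18 column (2.1 × 50 mm, 1.8 μm) at 100 μL/min. Eluents were water and acetonitrile, each with 0.1% formic acid.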

**Q.** For `O=C(Cn1cnc2nc(N3CCCC(C(=O)NC4CC4)C3)sc2c1=O)Nc1ccc(F)cc1F` (configuration not stated), which RP-LC retention time is on record?
**A.** 673 s

**Q.** Which RP-LC retention time does the source give for `COc1cc(OC)cc(C(=O)N2CCn3cnnc3C2)c1` here?
**A.** 578 s

**Q.** Which RP-LC retention time does the source give for `CCc1noc(NC(C)=O)c1-c1ccc(C)c(S(=O)(=O)Nc2ccc(C)cc2)c1` here?
**A.** 830 s

**Q.** With `O=C(NC1CC1)C1CCN(Cc2cc3ccccc3n2Cc2ccc(Cl)cc2)CC1` as the compound, how does the RP-LC retention time read?
**A.** 717 s

**Q.** Which RP-LC retention time does the source give for `CCNC(=O)C1CCCN(c2nc3ncn(CC(=O)NCc4ccc(Cl)cc4)c(=O)c3s2)C1` (configuration not stated) here?
**A.** 696 s

**Q.** Which RP-LC retention time does the source give for `Brc1ccc(OCc2nnc3sc(-c4ccncc4)nn23)cc1` here?
**A.** 811 s

**Q.** With `COCc1cc(=O)n(CC(=O)Nc2cc(F)ccc2F)c(N2CCOCC2)n1` as the compound, how does the RP-LC retention time read?
**A.** 838 s

**Q.** Which RP-LC retention time does the source give for `Cc1ccc(CNC(=O)c2nnc(-c3ccc(S(=O)(=O)N(C)C)cc3)o2)cc1` here?
**A.** 892 s

**Q.** With `COc1ccc(NS(=O)(=O)c2cc3n(c2)CCN(CC(C)C)C3=O)cc1` as the compound, how does the RP-LC retention time read?
**A.** 745 s

**Q.** For `Cc1ccc(C)c(-c2coc(-c3ccc(NC(=O)Cc4cccs4)cc3)n2)c1`, which RP-LC retention time is on record?
**A.** 1230 s

**Q.** With `Cc1ccc(NC(=O)N2CCC(C(C)C(=O)Nc3cccc(Cl)c3)CC2)cc1` (configuration not stated) as the compound, how does the RP-LC retention time read?
**A.** 971 s

**Q.** For `CC(C)(C)NC(=O)NCC1CC(=O)N(c2ccc(Cl)cc2)C1` (configuration not stated), which RP-LC retention time is on record?
**A.** 706 s

**Q.** Which RP-LC retention time does the source give for `OC1(c2ccccn2)CCOC2(CCN(Cc3cccc(F)c3)CC2)C1` (configuration not stated) here?
**A.** 554 s

**Q.** Which RP-LC retention time does the source give for `Cn1c2ccccc2c2cnn(CC(=O)N3CCN(c4ccccn4)CC3)c(=O)c21` here?
**A.** 943 s

**Q.** Which RP-LC retention time does the source give for `COc1ccc(C2(C(=O)N3CCC(Cc4nc(-c5ccccc5)n[nH]4)C3)CC2)cc1` (configuration not stated) here?
**A.** 734 s

**Q.** For `O=C(NC1CC1)c1cc(-c2ccc(F)cc2)n[nH]1`, which RP-LC retention time is on record?
**A.** 705 s

**Q.** With `COC(=O)c1ccc(Cn2cnc3c(-c4cccc(F)c4)csc3c2=O)o1` as the compound, how does the RP-LC retention time read?
**A.** 957 s

**Q.** Which RP-LC retention time does the source give for `CN(C)C(=O)c1ccc2c(c1)nc(CN1CCN(C(=O)NC3CCCCC3)CC1)n2C` here?
**A.** 565 s

**Q.** Which RP-LC retention time does the source give for `CCC(=O)Oc1ccc(N2C(=O)CCC2=O)cc1` here?
**A.** 671 s

**Q.** With `CC(C)CCNC(=O)C1(C)Cn2nc(C(=O)NCc3ccccc3Br)cc2C(=O)N1C` (configuration not stated) as the compound, how does the RP-LC retention time read?
**A.** 838 s

**Q.** For `CCCCOc1ccc(C(=O)N2CCNC(=O)C2CC(=O)OC2CCCCC2)cc1` (configuration not stated), which RP-LC retention time is on record?
**A.** 1000 s

**Q.** With `CCOC(=O)c1noc2ncnc(NCCc3ccccc3)c12` as the compound, how does the RP-LC retention time read?
**A.** 936 s

**Q.** For `CCOC(=O)C1CCN(S(=O)(=O)c2cc3n(c2)CCCN(CC)C3=O)CC1`, which RP-LC retention time is on record?
**A.** 679 s

**Q.** Which RP-LC retention time does the source give for `COc1ccc(-c2nc(Cn3ccnc3C)no2)cc1` here?
**A.** 607 s

**Q.** For `Cc1ccc(CNS(=O)(=O)c2c(C)nc3sc(C)nn23)o1`, which RP-LC retention time is on record?
**A.** 710 s

**Q.** With `CCCn1cnc2cc(CNC(=O)c3cccc(C(F)(F)F)c3)ccc21` as the compound, how does the RP-LC retention time read?
**A.** 690 s

**Q.** For `COc1ccc(C)cc1NC(=O)CNC(=O)c1ccc(=O)[nH]c1`, which RP-LC retention time is on record?
**A.** 588 s

**Q.** For `COC(=O)C1=C(COc2ccc(C)cc2)NC(=O)NC1c1ccc(OC)c(OC)c1` (configuration not stated), which RP-LC retention time is on record?
**A.** 976 s

**Q.** With `CC(C)C(=O)Nc1ccc(CCc2nc3ccc(C(=O)NC4CCCCC4)cc3[nH]2)cc1` as the compound, how does the RP-LC retention time read?
**A.** 672 s

**Q.** With `COc1ccc(CNC(=O)N2CCC(c3noc(-c4cnccn4)n3)C2)cc1` (configuration not stated) as the compound, how does the RP-LC retention time read?
**A.** 652 s

**Q.** With `CC(C(=O)Nc1ccccc1C(F)(F)F)N1C(=O)c2ccccc2S1(=O)=O` (configuration not stated) as the compound, how does the RP-LC retention time read?
**A.** 828 s

**Q.** With `CC(C)CNC(=O)C1CCCN(c2cnc3nccnc3c2)C1` (configuration not stated) as the compound, how does the RP-LC retention time read?
**A.** 658 s

**Q.** For `Cc1cc(N2CCN(c3ccccn3)CC2)n2nc(C(F)(F)F)c(-c3ccccc3Cl)c2n1`, which RP-LC retention time is on record?
**A.** 833 s

**Q.** For `O=C(Cc1ccc(-c2ccc(OCCN3CCOCC3)cc2)cn1)NCc1ccccc1`, which RP-LC retention time is on record?
**A.** 621 s

**Q.** For `CC(NC(=O)C1C(=O)NC2(C)CC1c1ccccc1O2)c1ccccc1` (configuration not stated), which RP-LC retention time is on record?
**A.** 831 s

**Q.** For `Cc1cc(C)nc(SCc2nnc(SCC(=O)Nc3nccs3)o2)n1`, which RP-LC retention time is on record?
**A.** 600 s

**Q.** With `O=C(C1=NN(Cc2ccccc2F)c2cc(Cl)ccc2S1(=O)=O)N1CCOCC1` as the compound, how does the RP-LC retention time read?
**A.** 833 s

— the METLIN SMRT retention time set (Domingo-Almenara et al. 2019)
